Source: the NIST ThermoML archive (doi:10.1021/acs.jced.6b00455)
Numbers after ± are expanded uncertainties.

Assay: mn = molality of the nth substance listed, in mol/kg
Conditions: 101 kPa, Liquid, Alternating current cell with electrodes

SMILES: C[N+](C)(C)CCO.O=C([O-])C(F)(F)C(F)(F)C(F)(F)C(F)(F)C(F)(F)C(F)(F)F [(2-hydroxyethyl)trimethylammonium perfluoroheptanoate] + O
- electrical conductivity (303.15 K, m1 = 0.001145): 0.0088 ± 0.0005 S/m
- electrical conductivity (303.15 K, m1 = 0.001333): 0.0102 ± 0.0006 S/m
- electrical conductivity (303.15 K, m1 = 0.001525): 0.0116 ± 0.0007 S/m
- electrical conductivity (303.15 K, m1 = 0.001575): 0.0126 ± 0.0008 S/m
- electrical conductivity (303.15 K, m1 = 0.001779): 0.0138 ± 0.0008 S/m
- electrical conductivity (303.15 K, m1 = 0.001975): 0.0164 ± 0.001 S/m
- electrical conductivity (303.15 K, m1 = 0.00219): 0.0173 ± 0.001 S/m
- electrical conductivity (303.15 K, m1 = 0.002392): 0.0187 ± 0.0011 S/m
- electrical conductivity (303.15 K, m1 = 0.002573): 0.0201 ± 0.0012 S/m
- electrical conductivity (303.15 K, m1 = 0.002757): 0.0218 ± 0.0013 S/m
- electrical conductivity (303.15 K, m1 = 0.003): 0.0233 ± 0.0014 S/m
- electrical conductivity (303.15 K, m1 = 0.003295): 0.0254 ± 0.0015 S/m
- electrical conductivity (303.15 K, m1 = 0.003479): 0.0262 ± 0.0016 S/m
- electrical conductivity (303.15 K, m1 = 0.003569): 0.0269 ± 0.0016 S/m
- electrical conductivity (303.15 K, m1 = 0.00377): 0.0282 ± 0.0017 S/m
- electrical conductivity (303.15 K, m1 = 0.00395): 0.0297 ± 0.0018 S/m
- electrical conductivity (303.15 K, m1 = 0.004136): 0.0313 ± 0.0019 S/m
- electrical conductivity (303.15 K, m1 = 0.004356): 0.033 ± 0.002 S/m
- electrical conductivity (303.15 K, m1 = 0.00458): 0.0343 ± 0.0021 S/m
- electrical conductivity (303.15 K, m1 = 0.004761): 0.0357 ± 0.0021 S/m
- electrical conductivity (303.15 K, m1 = 0.005083): 0.0368 ± 0.0022 S/m
- electrical conductivity (308.15 K, m1 = 0.000308): 0.0028 ± 0.0002 S/m
- electrical conductivity (308.15 K, m1 = 0.001088): 0.0096 ± 0.0006 S/m
- electrical conductivity (308.15 K, m1 = 0.001458): 0.0131 ± 0.0008 S/m
- electrical conductivity (308.15 K, m1 = 0.001696): 0.0151 ± 0.0009 S/m
- electrical conductivity (308.15 K, m1 = 0.001932): 0.0174 ± 0.001 S/m
- electrical conductivity (308.15 K, m1 = 0.002314): 0.0204 ± 0.0012 S/m
- electrical conductivity (308.15 K, m1 = 0.002768): 0.0243 ± 0.0015 S/m
- electrical conductivity (308.15 K, m1 = 0.002948): 0.0255 ± 0.0015 S/m
- electrical conductivity (308.15 K, m1 = 0.003212): 0.0279 ± 0.0017 S/m
- electrical conductivity (308.15 K, m1 = 0.003414): 0.0297 ± 0.0018 S/m
- electrical conductivity (308.15 K, m1 = 0.003749): 0.0324 ± 0.0019 S/m
- electrical conductivity (308.15 K, m1 = 0.004024): 0.0348 ± 0.0021 S/m
- electrical conductivity (308.15 K, m1 = 0.004369): 0.037 ± 0.0022 S/m
- electrical conductivity (308.15 K, m1 = 0.004622): 0.0392 ± 0.0024 S/m
- electrical conductivity (308.15 K, m1 = 0.004874): 0.0413 ± 0.0025 S/m
- electrical conductivity (308.15 K, m1 = 0.00517): 0.0438 ± 0.0026 S/m
- electrical conductivity (308.15 K, m1 = 0.005462): 0.0462 ± 0.0028 S/m
- electrical conductivity (313.15 K, m1 = 0.000152): 0.0016 ± 0.0001 S/m
- electrical conductivity (313.15 K, m1 = 0.000311): 0.0032 ± 0.0002 S/m
- electrical conductivity (313.15 K, m1 = 0.000509): 0.005 ± 0.0003 S/m
- electrical conductivity (313.15 K, m1 = 0.000756): 0.0072 ± 0.0004 S/m
- electrical conductivity (313.15 K, m1 = 0.000952): 0.0094 ± 0.0006 S/m
- electrical conductivity (313.15 K, m1 = 0.001127): 0.0112 ± 0.0007 S/m
- electrical conductivity (313.15 K, m1 = 0.001383): 0.0138 ± 0.0008 S/m
- electrical conductivity (313.15 K, m1 = 0.001573): 0.0155 ± 0.0009 S/m
- electrical conductivity (313.15 K, m1 = 0.001796): 0.0179 ± 0.0011 S/m
- electrical conductivity (313.15 K, m1 = 0.001971): 0.0201 ± 0.0012 S/m
- electrical conductivity (313.15 K, m1 = 0.002233): 0.0227 ± 0.0014 S/m
- electrical conductivity (313.15 K, m1 = 0.002359): 0.0239 ± 0.0014 S/m
- electrical conductivity (313.15 K, m1 = 0.002573): 0.0262 ± 0.0016 S/m
- electrical conductivity (313.15 K, m1 = 0.002937): 0.0297 ± 0.0018 S/m
- electrical conductivity (313.15 K, m1 = 0.003135): 0.0321 ± 0.0019 S/m
- electrical conductivity (313.15 K, m1 = 0.003363): 0.0336 ± 0.002 S/m
- electrical conductivity (313.15 K, m1 = 0.003618): 0.0359 ± 0.0022 S/m
- electrical conductivity (313.15 K, m1 = 0.003798): 0.0379 ± 0.0023 S/m
- electrical conductivity (313.15 K, m1 = 0.003983): 0.0396 ± 0.0024 S/m
- electrical conductivity (313.15 K, m1 = 0.004151): 0.0413 ± 0.0025 S/m
- electrical conductivity (313.15 K, m1 = 0.004487): 0.0444 ± 0.0027 S/m
- electrical conductivity (313.15 K, m1 = 0.004771): 0.0466 ± 0.0028 S/m
- electrical conductivity (313.15 K, m1 = 0.00507): 0.0489 ± 0.0029 S/m
- electrical conductivity (313.15 K, m1 = 0.005297): 0.0508 ± 0.003 S/m
- electrical conductivity (313.15 K, m1 = 0.005682): 0.0543 ± 0.0033 S/m
